Assay [1] relates to U937 cells. As to the kind of experiment: Cellular assay in U937 cells: activity of RIPK1 inhibitors on TNFα/zVAD.fmk-induced cell death (necroptosis), CellTiter 96 AQueous (MTS) readout. The settings on record: Homo sapiens, U-937. It counts as cell-based. In short, it runs like this: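 Necroptosis was measured by viable-cell MTS reduction (4 h, absorbance 490 nm) after overnight (18–24 h) 37° C culture. Cell suspensions of U937 cells carried TNFα (100 ng/ml) plus zVAD.fmk (50 μM) before compound was added. A 10-point curve (10 μM–0.26 nM or 1 μM–0.07 nM) was run in duplicate, normalised to the control lacking TNFα/zVAD.fmk.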

The target in assay [2] is T1, hRIPK1 (aa 1-375) fusion protein (Homo sapiens, UniProt Q13546).
T1 construct: hRIPK1 (aa 1-375) fusion protein
T1 sequence (Q13546 1-375): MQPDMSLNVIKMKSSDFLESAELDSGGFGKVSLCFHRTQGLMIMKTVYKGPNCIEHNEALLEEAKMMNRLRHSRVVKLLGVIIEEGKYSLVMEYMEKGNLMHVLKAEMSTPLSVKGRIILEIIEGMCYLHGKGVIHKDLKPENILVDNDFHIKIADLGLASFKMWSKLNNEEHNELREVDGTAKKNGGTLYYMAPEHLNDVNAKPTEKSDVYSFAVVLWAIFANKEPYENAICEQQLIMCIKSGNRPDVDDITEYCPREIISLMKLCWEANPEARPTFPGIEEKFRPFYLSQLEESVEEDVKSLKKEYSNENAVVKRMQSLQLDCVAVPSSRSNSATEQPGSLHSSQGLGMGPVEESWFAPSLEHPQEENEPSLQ
As to the kind of experiment: ADP-Glo kinase assay: catalytic activity of RIPK1 (autophosphorylation, conversion of ATP to ADP). It counts as biochemical. In short, it runs like this:
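The readout was ADP-Glo luminescence after a 240 min rt autophosphorylation reaction with 50 μM ATP, following 30 min preincubation of 3.6 μg/ml hRIPK1 (aa 1-375) fusion with compound at 33300-1.69 nM final in 1% DMSO. Values came from Levenberg-Marquardt nonlinear fits.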

What is called IC50 is the midpoint of a concentration-inhibition curve. A higher IC50 goes with lower potency. With `Cn1cc(C[C@H]2CC[C@H](C(=O)N3OCC[C@H]3c3cnccn3)CC2)cn1` [compound 151, trans-[4-[(1-methylpyrazol-4-yl)methyl]cyclohexyl]-[(3S)-3-pyrazin-2-ylisoxazolidin-2-yl]methanone], the IC50 is 214 nM in assay [1] and 46 nM in assay [2].
As for `Cc1c(C#N)cncc1C[C@H]1CC[C@H](C(=O)N2OCC[C@H]2c2cc(F)cc(F)c2)CC1` [compound 275, trans-5-[[4-[(3S)-3-(3,5-difluorophenyl)isoxazolidine-2-carbonyl]cyclohexyl]methyl]-4-methyl-pyridine-3-carbonitrile], the IC50 stood at 9 nM in assay [1] and 8 nM in assay [2].
As to `Cc1c2ccccc2nn1C[C@H]1CC[C@H](C(=O)N2OCC[C@H]2c2cc(F)cc(F)c2)CC1` [compound 62, trans-((S)-3-(3,5-difluorophenyl)isoxazolidin-2-yl)(4-((3-methyl-2H-indazol-2-yl)methyl)cyclohexyl)methanone], the IC50 in assay [1] was determined as 22 nM; in assay [2], 20 nM.
For the compound `Cn1ncc2ccc(C[C@H]3CC[C@H](C(=O)N4OCC[C@H]4c4cc(F)cc(C#N)c4)CC3)cc21` [compound 294, trans-3-fluoro-5-[(3S)-2-[4-[(1-methylindazol-6-yl)methyl]cyclohexanecarbonyl]isoxazolidin-3-yl]benzonitrile], the IC50 worked out at 1 nM in assay [1] and 4 nM in assay [2].
Take `Cc1nc2ccc(C[C@H]3CC[C@H](C(=O)N4OCC[C@H]4c4ccc(F)c(F)c4)CC3)nn2n1` [compound 310, trans-[(3S)-3-(3,4-difluorophenyl)isoxazolidin-2-yl]-[4-[(2-methyl-[1,2,4]triazolo[1,5-b]pyridazin-6-yl)methyl]cyclohexyl]methanone]: the values for the IC50 in assay [1] and in assay [2] were 22 nM and 12 nM, respectively.
The corresponding values for `N#Cc1cc(F)cc([C@@H]2CCON2C(=O)[C@H]2CC[C@H](Cc3ccc(C4(O)COC4)cc3)CC2)c1` [compound 169, trans-3-fluoro-5-[(3S)-2-[4-[[4-(3-hydroxyoxetan-3-yl)phenyl]methyl]cyclohexanecarbonyl]isoxazolidin-3-yl]benzonitrile] are 44 nM and 19 nM.
The corresponding values for `N#Cc1cc(F)cc([C@@H]2CCON2C(=O)[C@H]2CC[C@H](Cn3ncc4cc(C#N)c(F)cc43)CC2)c1` [compound 66, trans-1-((4-((S)-3-(3-cyano-5-fluorophenyl)isoxazolidine-2-carbonyl)cyclohexyl)methyl)-6-fluoro-1H-indazole-5-carbonitrile] are 2 nM and 18 nM.
On the same counts, the results for `CNC(=O)c1ccc(F)c(C[C@H]2CC[C@H](C(=O)N3OCC[C@H]3c3cncc(F)c3)CC2)c1` [compound 172, trans-4-fluoro-3-[[4-[(3S)-3-(5-fluoro-3-pyridyl)isoxazolidine-2-carbonyl]cyclohexyl]methyl]-N-methyl-benzamide] are 9 nM and 16 nM.
With `Cc1ccc(CC23CCC(C(=O)N4OCC[C@H]4c4cc(F)cc(C#N)c4)(CC2)C3)cc1C(N)=O` [compound 270, 5-[[4-[(3S)-3-(3-cyano-5-fluoro-phenyl)isoxazolidine-2-carbonyl]norbornan-1-yl]methyl]-2-methyl-benzamide], the IC50 in assay [1] was 50 nM; in assay [2], 20 nM.
On the same counts, the results for `Cc1nnc2ccc(C[C@H]3CC[C@H](C(=O)N4OCC[C@H]4c4cc(F)cc(C#N)c4)CC3)cn12` [compound 224, trans-3-fluoro-5-[(3S)-2-[4-[(3-methyl-[1,2,4]triazolo[4,3-a]pyridin-6-yl)methyl]cyclohexanecarbonyl]isoxazolidin-3-yl]benzonitrile] are 17 nM and 35 nM.
With `Cc1nc2ccc(C[C@H]3CC[C@H](C(=O)N4OCC[C@H]4c4cc(F)cc(C#N)c4)CC3)cn2n1` [compound 221, trans-3-fluoro-5-[(3S)-2-[4-[(2-methyl-[1,2,4]triazolo[1,5-a]pyridin-6-yl)methyl]cyclohexanecarbonyl]isoxazolidin-3-yl]benzonitrile], the IC50 was determined as 19 nM in assay [1] and 22 nM in assay [2].
The corresponding values for `Cc1ccc([C@@H]2CCON2C(=O)[C@H]2CC[C@H](Cc3ccc4c(c3)C(=O)NC4)CC2)cn1` [compound 157, trans-6-[[4-[(3S)-3-(6-methyl-3-pyridyl)isoxazolidine-2-carbonyl]cyclohexyl]methyl]isoindolin-1-one] are 396 nM and 33 nM.
With `N#Cc1cc(F)cc([C@@H]2CCON2C(=O)[C@H]2CC[C@H](Cn3cnc4cc(F)c(C#N)cc43)CC2)c1` [compound 13, trans-1-((4-((S)-3-(3-cyano-5-fluorophenyl)isoxazolidine-2-carbonyl)cyclohexyl)methyl)-5-fluoro-1H-benzo[d]imidazole-6-carbonitrile], the IC50 in assay [1] was determined as 5 nM; in assay [2], 33 nM.
For the compound `Cc1ncn(C[C@H]2CC[C@H](C(=O)N3OCC[C@H]3c3cc(F)cc(F)c3)CC2)c1C#N` [compound 89, trans-1-((4-((S)-3-(3,5-difluorophenyl)isoxazolidine-2-carbonyl)cyclohexyl)methyl)-4-methyl-1H-imidazole-5-carbonitrile], the IC50 is 38 nM in assay [1] and 34 nM in assay [2].
On the same counts, the results for `Cc1cnc([C@@H]2CCON2C(=O)[C@H]2CC[C@H](Cc3cc(F)cnc3C)CC2)cn1` [compound 316, trans-[4-[(5-fluoro-2-methyl-3-pyridyl)methyl]cyclohexyl]-[(3S)-3-(5-methylpyrazin-2-yl)isoxazolidin-2-yl]methanone] are 27 nM and 31 nM.
With `Cc1nn(C[C@H]2CC[C@H](C(=O)N3OCC[C@H]3c3cc(F)cc(F)c3)CC2)c2cc(F)c(C#N)cc12` [compound 68, trans-1-((4-((S)-3-(3,5-difluorophenyl)isoxazolidine-2-carbonyl)cyclohexyl)methyl)-6-fluoro-3-methyl-1H-indazole-5-carbonitrile], the IC50 is 2 nM in assay [1] and 25 nM in assay [2].
Take `Cc1ncc(C[C@H]2CC[C@H](C(=O)N3OCC[C@H]3c3cc(F)cc(C#N)c3)CC2)cc1C#N` [compound 268, trans-5-[[4-[(3S)-3-(3-cyano-5-fluoro-phenyl)isoxazolidine-2-carbonyl]cyclohexyl]methyl]-2-methyl-pyridine-3-carbonitrile]: the IC50 in assay [1] was determined as 5 nM; in assay [2], 12 nM.
The corresponding values for `N#Cc1cc(F)cc([C@@H]2CCON2C(=O)[C@H]2CC[C@H](Cn3ccc4ncc(C#N)cc43)CC2)c1` [compound 2, trans-1-((4-((S)-3-(3-cyano-5-fluorophenyl)isoxazolidine-2-carbonyl)cyclohexyl)methyl)-1H-pyrrolo[3,2-b]pyridine-6-carbonitrile] are 9 nM and 33 nM.
The corresponding values for `N#Cc1cc(F)cc([C@@H]2CCON2C(=O)[C@H]2CC[C@H](Cn3ccc4cc(F)c(C(N)=O)cc43)CC2)c1` [compound 76, trans-1-((4-((S)-3-(3-cyano-5-fluorophenyl)isoxazolidine-2-carbonyl)cyclohexyl)methyl)-5-fluoro-1H-indole-6-carboxamide] are 8 nM and 17 nM.
The corresponding values for `N#Cc1cc(F)cc([C@@H]2CCON2C(=O)[C@H]2CC[C@H](Cn3c(=O)oc4ccccc43)CC2)c1` [compound 18, trans-3-fluoro-5-((S)-2-(4-((2-oxobenzo[d]oxazol-3(2H)-yl)methyl)cyclohexane-1-carbonyl)isoxazolidin-3-yl)benzonitrile] are 16 nM and 19 nM.
For `Cc1cc(C[C@H]2CC[C@H](C(=O)N3OCC[C@H]3c3cc(F)cc(C#N)c3)CC2)cn2ncnc12` [compound 249, trans-3-fluoro-5-[(3S)-2-[4-[(8-methyl-[1,2,4]triazolo[1,5-a]pyridin-6-yl)methyl]cyclohexanecarbonyl]-1,2-oxazolidin-3-yl]benzonitrile], the IC50 was 5 nM in assay [1] and 18 nM in assay [2].
Turning to `N#Cc1cc(F)cc([C@@H]2CCON2C(=O)[C@H]2CC[C@H](Cn3ccc4ccncc43)CC2)c1` [compound 16, trans-3-((S)-2-(4-((1H-pyrrolo[2,3-c]pyridin-1-yl)methyl)cyclohexane-1-carbonyl)isoxazolidin-3-yl)-5-fluorobenzonitrile], the half-maximal inhibitory concentration (IC50) amounted to 6 nM in assay [1] and 39 nM in assay [2].
As for `N#Cc1cc(F)cc([C@@H]2CCON2C(=O)[C@H]2CC[C@H](Cn3ncc4cc(F)ccc43)CC2)c1` [compound 54, trans-3-fluoro-5-((S)-2-(4-((5-fluoro-1H-indazol-1-yl)methyl)cyclohexane-1-carbonyl)isoxazolidin-3-yl)benzonitrile], the concentration for half-maximal inhibition (IC50) in assay [1] came to 6 nM; in assay [2] it was 21 nM.
On the same counts, the results for `Cn1cncc1C[C@H]1CC[C@H](C(=O)N2OCC[C@H]2c2cc(F)cc(C#N)c2)CC1` [compound 167, trans-3-fluoro-5-[(3S)-2-[4-[(3-methylimidazol-4-yl)methyl]cyclohexanecarbonyl]isoxazolidin-3-yl]benzonitrile] are 100 nM and 104 nM.
